Data: article PMC7226963, “CCN-Based Therapeutic Peptides Modify Pancreatic Ductal Adenocarcinoma Microenvironment and Decrease Tumor Growth in Combination with Chemotherapy” (Cells, 2020)
Read-outs that look alike come from different tables or passages of the source.

What was measured:
[1] = Gemcitabine and metabolites in tumor and plasma, with or without BLR200 (HPLC-MS); conditions: for Change of concentration (tumor/plasma ratio) in BLR200-treated mice: BLR200 10 µg/kg i.p. every other day from day 11, 4 treatments, gemcitabine 100 mg/kg i.v. single bolus day 17, 30 min and 1 h, n = 4, not statistically significant
Description: FC1199-bearing mice were treated i.p with BLR200 (10 µg/kg) from day 11 for a total of 4 treatments, every other day. On day 17, mice were treated with gemcitabine (100 mg/kg, i.v., single bolus). After 30 min and 1 h, plasma and tumors were collected for HPLC measurement of gemcitabine and metabolites. The plasma fraction added with 10 µL tetrahydrouridine (THU) 2.5 mg/mL was immediately separated by centrifugation at 3200× g for 15 min at 4 °C and stored at −20 °C until analysis. Tumors were immediately frozen in liquid nitrogen and stored at −20 °C until analysis. Extraction and analysis of gemcitabine (dFdc, dFdCTP, and dFdU) in tumors and plasma were carried out according to Bapiro et al. [27].
Briefly, tumors were weighted, spiked with 2′-deossicitidine as the internal standard (IS) at a final concentration of 1 ng/mg, and homogenized with ice-cold acetonitrile (ACN) 50% (v/v) containing THU 25 µg/mL in a Precellys Evolution homogenizer (Bertin Technologies S.A.S., Montigny-le-Bretonneux, France). Fifty microliters of homogenate were added with 200 µL ACN 50% (v/v), vortexed, and centrifuged at 13,200 rpm for 10 min at 4 °C. The supernatant was dried under N2 flux and the residue reconstituted with 100 µL of milliQ water. Concerning plasma, 25 µL were spiked with 1 µL of 10 µg/mL of IS and processed in the same way as tumors. The reconstituted tumors and plasma extracts were analyzed by injecting 2 µL in a UHPLC System connected to a LCMS-8060 (Shimadzu Scientific Instruments, Columbia, MD, USA) with a dual ion source. […] The mass spectrometer worked with an electrospray ionization source operating both in the negative and positive Multiple Reaction Monitoring mode, quantifying target ions m/z 264→59.25 for gemcitabine (positive), m/z 502→158.9 for dFdCTP (negative), m/z 263.1→220 for dFdU (negative), and m/z 228.1→112.05 for IS (positive). The lower limit of quantitation (LOQ) was 0.2 ng/mg for gemcitabine, 0.4 ng/mg for dFdU, and 0.5 ng/mg for dFdCTP in tumor samples, while it was 0.01 µg/mL for gemcitabine and 0.02 µg/mL for dFdU in plasma samples.

FC1199 orthotopic tumors = assay: Orthotopic FC1199 PDAC model: tumor burden (pancreas weight) and ascites; type: in vivo, C57BL/6 mice; conditions: peptides 4.5 µg/kg i.p. from day 11 or gemcitabine 40 mg/kg i.v.; n = 7
Description: Six- to eight-week old female C57BL/6 mice (Charles River Laboratories, Lecco, Italy) were maintained under specific-pathogen-free conditions, with constant temperature and humidity, and handled using aseptic procedures. FC1199 cells (5 × 10^4) were implanted orthotopically in the pancreas as described. Gemcitabine was administered i.v. at 40 mg/kg (see scheme in Figure 4A). Control groups received the same volume of vehicle. Mice were weighed every other day as a measure of drug toxicity. […] Tumor burden was evaluated at the end of the experiment, as pancreas weight. Peritoneal ascitic fluid was collected with a syringe and the volume recorded. Animals with a collectable peritoneal fluid (≥100 µL) were considered positive for ascites. Liver of mice were analyzed for macroscopic metastases, and no metastatic foci was detected in any group.

FC1199 cells = assay: FC1199 proliferation assay (crystal violet); type: cell-based, murine; conditions: Mus musculus, 72 h, 72 h incubation, mean and SD of two experiments, read-out: IC50 of gemcitabine on FC1199 cell proliferation
Description: FC1199 were seeded into 96-well plates in DMEM supplemented with 5% FCS. At 24 h after seeding, cells were exposed to increasing concentrations of BLR100 and BLR200 alone or in combination with increasing concentrations of gemcitabine. After a 72 h incubation, cells were fixed and stained with crystal violet solution (Sigma–Aldrich, Merck Life Science, Milano, Italy). The staining was eluted with a 1:1 ethanol/0.1 M sodium citrate solution, and the absorbance at 595 nm was measured. Each condition was tested in triplicate.

KPC tumor = conditions: LSL-KrasG12D/+;LSL-Trp53R172H/+;Pdx-1-Cre (KPC) mice; cited from earlier work
Text: (§1) CCN2 has recently been proposed as a target for PDAC therapy. […] FG-3019 (pamrevlumab) is currently in a Phase 3 clinical trial to evaluate its efficacy and safety as neoadjuvant treatment in combination with gemcitabine plus nab-paclitaxel in the treatment of locally advanced, unresectable pancreatic cancer.

PANC-1 orthotopic = PANC-1 orthotopic preclinical model; cited from earlier work
Text: as §1

Molecule: Nc1ccn([C@@H]2O[C@H](COP(=O)(O)OP(=O)(O)OP(=O)(O)O)[C@@H](O)C2(F)F)c(=O)n1 [dFdCTP, gemcitabine triphosphate]
- Concentration of the metabolite in tumors and plasma ([1]; gemcitabine 100 mg/kg i.v. single bolus, with or without BLR200 10 µg/kg, 30 min and 1 h, LOQ 0.5 ng/mg in tumor): undetectable in both groups

Molecule: O=c1ccn([C@@H]2O[C@H](CO)[C@@H](O)C2(F)F)c(=O)[nH]1 [dFdU, 2′,2′-difluorodeoxyuridine]
- Change of concentration (tumor/plasma ratio) in BLR200-treated mice [1]: small increase

Molecule: Nc1ccn([C@@H]2O[C@H](CO)[C@@H](O)C2(F)F)c(=O)n1 [gemcitabine, Gemcitabine]
- Effect on tumor growth as monotherapy, late start (FC1199 orthotopic tumors): only a marginal effect on tumor growth
- Change of concentration (tumor/plasma ratio) in BLR200-treated mice [1]: small increase
- IC50 (FC1199 cells; gemcitabine alone, DMEM 5% FCS, absorbance 595 nm): 13.5 ± 4.6 nM
- IC50 (FC1199 cells; gemcitabine with BLR100 20 nM): 13.2 ± 3.9 nM
- IC50 (FC1199 cells; gemcitabine with BLR100 100 nM): 11.9 ± 3.7 nM

B1: FG-3019: CCN2-targeting mAb (antibody, chains of the INN, looked up, V domains shown)
VH: EGQLVQSGGGLVHPGGSLRLSCAGSGFTFSSYGMHWVRQAPGKGLEWVSGIGTGGGTYSTDSVKGRFTISRDNAKNSLYLQMNSLRAEDMAVYYCARGDYYGSGSFFDCWGQGTLVTVSS
VL: DIQMTQSPSSLSASVGDRVTITCRASQGISSWLAWYQQKPEKAPKSLIYAASSLQSGVPSRFSGSGSGTDFTLTISSLQPEDFATYYCQQYNSYPPTFGQGTKLEIK
- Tumor response to gemcitabine (KPC tumor): enhanced tumor response
- Tumor growth and metastasis (PANC-1 orthotopic): inhibited tumor growth and metastasis
